This note sets out measurements from PubChem BioAssay (NCI).

Structures are written as SMILES.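 A five-concentration, 48-hour dose response in 96-well plates underlies each endpoint, interpolated linearly between surrounding concentrations. Abbreviation: GI50, concentration required for 50% inhibition of growth. TGI: concentration producing complete growth inhibition.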 Some results are limits rather than exact numbers.

Some test systems named below: UACC-257 melanoma; IGROV1 ovarian; SK-MEL-28 melanoma; ACHN renal; M14 melanoma; NCI-H226 lung; A549 NSCLC; SK-OV-3 ovarian; HOP-92 NSCLC; SF-539 CNS.
Holding throughout (test): NCI-60 cell line screen, 48 h

`COc1cc2c(c(OC)c1OC)-c1ccc(N)c(=O)cc1[C@@H](NC(C)=O)CC2`: the GI50 in the experiment with UACC-257 melanoma was over 100 µM; in the experiment on IGROV1 ovarian, 0.0359 µM; with SK-MEL-28 melanoma it was over 100 µM; with ACHN renal, 0.152 µM; in the experiment with M14 melanoma it was 0.0208 µM; with NCI-H226 lung, 0.0852 µM. Also, the GI50 in the experiment on A549 NSCLC was 0.0563 µM; in the experiment with SK-OV-3 ovarian, 0.0388 µM; in the experiment with HOP-92 NSCLC, 0.0409 µM; with SF-539 CNS it was 0.0289 µM. Moreover, the TGI in the experiment with UACC-257 melanoma, with SK-MEL-28 melanoma, with ACHN renal, in the experiment with A549 NSCLC, in the experiment with SK-OV-3 ovarian and in the experiment on HOP-92 NSCLC was over 100 µM in each case. This compound also registered a TGI with SF-539 CNS of over 100 µM.

`O=C(/C=C/C12c3ccccc3C(c3ccccc31)C1C(=O)N(c3ccccc3)C(=O)C12)c1ccccc1` (stereo not drawn): the GI50 was 2.3 µM in the experiment with UACC-257 melanoma; 2.06 µM in the experiment on IGROV1 ovarian; 2.48 µM in the experiment with SK-MEL-28 melanoma; 1.63 µM with ACHN renal; 2.51 µM in the experiment on M14 melanoma; 2.34 µM with NCI-H226 lung. The GI50 with A549 NSCLC was 2.58 µM; in the experiment on SK-OV-3 ovarian, 28.3 µM; in the experiment on HOP-92 NSCLC, 1.26 µM; in the experiment on SF-539 CNS, 2.09 µM. In addition, the TGI in the experiment on UACC-257 melanoma is 39.2 µM; in the experiment on IGROV1 ovarian, 6.05 µM; in the experiment with SK-MEL-28 melanoma, 7.09 µM; in the experiment on ACHN renal it was 4.08 µM; in the experiment on M14 melanoma, 10.1 µM; with NCI-H226 lung it was 8.63 µM. Also, the TGI in the experiment with A549 NSCLC was over 100 µM; with SK-OV-3 ovarian, over 100 µM; with HOP-92 NSCLC, 3.75 µM; in the experiment on SF-539 CNS, 5.14 µM.

`CCOC(=O)C1(Br)C(c2ccccc2)NC(=O)NC1(C)Br` (stereo not drawn): the TGI in the experiment on UACC-257 melanoma, in the experiment on IGROV1 ovarian, in the experiment on SK-MEL-28 melanoma, with ACHN renal, in the experiment on M14 melanoma and with NCI-H226 lung was over 100 µM in each case. Moreover, the TGI in the experiment with A549 NSCLC was over 100 µM; with SK-OV-3 ovarian it was over 100 µM; in the experiment on HOP-92 NSCLC, over 93.5 µM; in the experiment with SF-539 CNS, over 100 µM. Also, the GI50 with SF-539 CNS was over 100 µM.

Regarding `CN1CCN(c2ccc(NC(=O)c3nc4ccc5[nH]ncc5c4c4c3CCCC4)cc2C(F)(F)F)CC1`, the GI50 in the experiment on UACC-257 melanoma was 0.902 µM; in the experiment with IGROV1 ovarian, 0.821 µM; in the experiment on SK-MEL-28 melanoma, 0.941 µM; with ACHN renal, 0.857 µM; in the experiment with M14 melanoma, 0.861 µM; in the experiment on NCI-H226 lung, 4.36 µM. Also, the GI50 with A549 NSCLC was 1.12 µM; in the experiment on SK-OV-3 ovarian it was 1.48 µM; in the experiment with HOP-92 NSCLC, 0.658 µM; in the experiment on SF-539 CNS it was 0.851 µM. Also, the TGI with UACC-257 melanoma is 1.88 µM; in the experiment on IGROV1 ovarian, 1.73 µM; with SK-MEL-28 melanoma, 1.71 µM; with ACHN renal it was 1.55 µM; with M14 melanoma, 1.71 µM; in the experiment on NCI-H226 lung, 17.7 µM. Also, the TGI was found to be 3.05 µM in the experiment with A549 NSCLC, 5.25 µM in the experiment on SK-OV-3 ovarian, 1.34 µM with HOP-92 NSCLC and 1.61 µM in the experiment on SF-539 CNS.

Consider `COc1ccc2c(c1)C(=O)c1c-2n(CCCN=[N+]=[N-])c(=O)c2cc(N(C)C)ccc12`, for which the GI50 in the experiment on UACC-257 melanoma, in the experiment with IGROV1 ovarian, in the experiment on SK-MEL-28 melanoma, with ACHN renal, in the experiment with M14 melanoma and in the experiment with NCI-H226 lung was over 100 µM throughout. Besides, the GI50 was over 100 µM in the experiment with A549 NSCLC, over 100 µM in the experiment on SK-OV-3 ovarian, 2.87 µM in the experiment on HOP-92 NSCLC and 17.6 µM with SF-539 CNS. Moreover, the TGI in the experiment with UACC-257 melanoma, with IGROV1 ovarian, in the experiment on SK-MEL-28 melanoma, in the experiment on ACHN renal, in the experiment on M14 melanoma and with NCI-H226 lung was over 100 µM in each case. For the same compound, the TGI in the experiment with A549 NSCLC was over 100 µM; in the experiment on SK-OV-3 ovarian, over 100 µM; with HOP-92 NSCLC it was 24.6 µM; in the experiment with SF-539 CNS, over 100 µM.

For `Oc1ccc(C(c2ccc(O)cc2)c2ccc(Cl)cn2)cc1`, the GI50 with UACC-257 melanoma is 23.1 µM; with IGROV1 ovarian, 0.378 µM; with SK-MEL-28 melanoma, 28 µM; with ACHN renal, 0.427 µM; in the experiment with M14 melanoma, 21.3 µM; with NCI-H226 lung, 1.93 µM. Besides, the GI50 is 1.21 µM in the experiment with A549 NSCLC, 18.6 µM with SK-OV-3 ovarian, 0.266 µM in the experiment with HOP-92 NSCLC and 13.7 µM in the experiment on SF-539 CNS. For the same compound, the TGI in the experiment with UACC-257 melanoma is over 100 µM; in the experiment on IGROV1 ovarian, 42 µM; in the experiment on SK-MEL-28 melanoma it was over 100 µM; in the experiment on ACHN renal, 22.2 µM; in the experiment with M14 melanoma, over 100 µM; in the experiment with NCI-H226 lung, over 45.8 µM. For the same compound, the TGI with A549 NSCLC was over 100 µM; with SK-OV-3 ovarian, over 100 µM; in the experiment with HOP-92 NSCLC, 0.947 µM; in the experiment on SF-539 CNS it was over 100 µM.

Regarding `O=C(Nc1cccc([N+](=O)[O-])c1)C(=O)C(C(=O)c1ccccc1-c1ccccc1)C1OC(=O)c2ccccc21` (stereo not drawn), the TGI in the experiment with UACC-257 melanoma is 93.4 µM; in the experiment on IGROV1 ovarian, 98.8 µM; with SK-MEL-28 melanoma, 67.6 µM; in the experiment with ACHN renal, over 100 µM; with M14 melanoma it was 41.1 µM; with NCI-H226 lung it was 25.9 µM. Besides, the TGI with A549 NSCLC is 82.7 µM; with SK-OV-3 ovarian, over 100 µM; with HOP-92 NSCLC, 32.8 µM; with SF-539 CNS, 28.4 µM.

In the case of `O=C(Nc1ccc(F)cc1)c1ccc(NC2=C(Cl)C(=O)N(Cc3ccccc3)C2=O)cc1`, the GI50 in the experiment on UACC-257 melanoma was 19.8 µM; with IGROV1 ovarian it was 1.06 µM; in the experiment with SK-MEL-28 melanoma it was 16.5 µM; in the experiment with ACHN renal, 14.3 µM; in the experiment on M14 melanoma, 13.4 µM; in the experiment with NCI-H226 lung it was 13.5 µM. For the same compound, the GI50 with A549 NSCLC was 8.68 µM; in the experiment on SK-OV-3 ovarian, 24 µM; with HOP-92 NSCLC, 5.23 µM; in the experiment on SF-539 CNS, 11.2 µM. The TGI with UACC-257 melanoma turned out to be 56 µM; with IGROV1 ovarian it was 3.58 µM; in the experiment on SK-MEL-28 melanoma, 39.5 µM; with ACHN renal, 27.8 µM; with M14 melanoma it was 30.3 µM; in the experiment on NCI-H226 lung, 33.3 µM. Besides, the TGI in the experiment with A549 NSCLC was determined as 39 µM; with SK-OV-3 ovarian it was 68 µM; in the experiment on HOP-92 NSCLC it was 19.1 µM; with SF-539 CNS, 26.7 µM.

As to `CC1(C)C(=O)C(C)(C)C1=NN`, the TGI in the experiment on UACC-257 melanoma, in the experiment with IGROV1 ovarian, in the experiment on SK-MEL-28 melanoma, with ACHN renal, in the experiment with M14 melanoma and with NCI-H226 lung was over 100 µM in each case. In addition, the TGI in the experiment with A549 NSCLC, in the experiment with SK-OV-3 ovarian, in the experiment with HOP-92 NSCLC and in the experiment with SF-539 CNS was over 100 µM each time.

With `C=CCN(/C=C1/C(=O)O[C@H](COC)[C@@]2(C)C1=C(O)C(=O)C1=C2[C@H](OC(C)=O)C[C@]2(C)C(=O)CC[C@@H]12)CC=C`, the GI50 with UACC-257 melanoma was 0.72 µM; in the experiment with IGROV1 ovarian, 0.135 µM; with SK-MEL-28 melanoma, 1.1 µM; with ACHN renal, 1.53 µM; in the experiment on M14 melanoma, 2.95 µM; in the experiment with NCI-H226 lung it was 2.57 µM. The GI50 in the experiment with A549 NSCLC is 0.382 µM; in the experiment with SK-OV-3 ovarian, 0.331 µM; in the experiment on HOP-92 NSCLC it was 0.0783 µM; in the experiment on SF-539 CNS, 0.692 µM. In addition, the TGI was over 9.25 µM in the experiment on UACC-257 melanoma; 6.81 µM in the experiment with IGROV1 ovarian; over 10 µM in the experiment with SK-MEL-28 melanoma; over 10 µM in the experiment on ACHN renal; over 10 µM with M14 melanoma; over 10 µM with NCI-H226 lung. For the same compound, the TGI with A549 NSCLC was over 8.15 µM; in the experiment with SK-OV-3 ovarian, over 8.47 µM; with HOP-92 NSCLC, 1.57 µM; in the experiment with SF-539 CNS it was over 5.24 µM.

On to `CCOC(=O)C1=C(c2ccccc2)N(C)c2ccccc2S1`, for which the TGI in the experiment on UACC-257 melanoma is 86.1 µM; in the experiment on IGROV1 ovarian, over 100 µM; in the experiment on SK-MEL-28 melanoma, over 100 µM; with ACHN renal, 58.5 µM; in the experiment with M14 melanoma, over 100 µM; in the experiment with NCI-H226 lung, 54.1 µM. In addition, the TGI in the experiment with A549 NSCLC, with SK-OV-3 ovarian, in the experiment on HOP-92 NSCLC and in the experiment with SF-539 CNS was over 100 µM each time.

Regarding `COc1ccc(-c2nc3sc(-c4ccc(Cl)cc4)cn3n2)cc1`, the GI50 with UACC-257 melanoma is over 50 µM; with IGROV1 ovarian, 1.15 µM; with SK-MEL-28 melanoma, over 50 µM; in the experiment on ACHN renal, 0.927 µM; in the experiment on M14 melanoma, over 50 µM; with NCI-H226 lung, 11.1 µM. In addition, the GI50 in the experiment on A549 NSCLC was 1.59 µM; in the experiment with SK-OV-3 ovarian, 11.7 µM; in the experiment on HOP-92 NSCLC it was 0.915 µM; in the experiment on SF-539 CNS, 1.85 µM. In addition, the TGI in the experiment on UACC-257 melanoma was over 50 µM; in the experiment with IGROV1 ovarian, 8.13 µM; in the experiment with SK-MEL-28 melanoma it was over 50 µM; with ACHN renal, 2.02 µM; in the experiment with M14 melanoma, over 50 µM; in the experiment with NCI-H226 lung, over 50 µM. Besides, the TGI in the experiment with A549 NSCLC was 5.89 µM; with SK-OV-3 ovarian it was over 50 µM; with HOP-92 NSCLC, 7.61 µM; with SF-539 CNS, 21.5 µM.

Turning to `O=C(Nc1ccc(Cl)cc1Cl)C(=O)C(C(=O)c1ccc2ccccc2c1)C1OC(=O)c2ccccc21` (stereo not drawn), the TGI with UACC-257 melanoma is 65.3 µM; with IGROV1 ovarian, 57.7 µM; in the experiment on SK-MEL-28 melanoma, 15.3 µM; in the experiment with ACHN renal it was over 100 µM; in the experiment with M14 melanoma, 28 µM; with NCI-H226 lung, 6.33 µM. Moreover, the TGI was 73.6 µM in the experiment with A549 NSCLC, over 100 µM in the experiment on SK-OV-3 ovarian, 8.92 µM in the experiment on HOP-92 NSCLC and 11.7 µM in the experiment on SF-539 CNS.
